Test results: patent US12558302B2, “Tyrosinase-inhibiting molecules and dermopharmaceutical composition that includes them” (MESOESTETIC PHARMA GROUP, S.L, priority 2021, dated 2026)
“And” between values parts separate entries of the source, which are not always exact repeats. Equal values may be shown once.

Columns and labels:
tyrosinase = biological target: T1, tyrosinase (Homo sapiens, UniProt P14679); test: tyrosinase activity in lysate of L-tyrosine-stimulated human melanocytes (L-DOPA/MBTH); type: biochemical; details: L-tyrosine-stimulated control = 100%
T1 construct: the cells were trypsinised and lysated in PBS pH 7.0 with 1% Triton X-100; host or cells: human melanocytes (primary), stimulated with 2 mM L-tyrosine; Triton X-100 lysate
T1 sequence (P14679 19-529): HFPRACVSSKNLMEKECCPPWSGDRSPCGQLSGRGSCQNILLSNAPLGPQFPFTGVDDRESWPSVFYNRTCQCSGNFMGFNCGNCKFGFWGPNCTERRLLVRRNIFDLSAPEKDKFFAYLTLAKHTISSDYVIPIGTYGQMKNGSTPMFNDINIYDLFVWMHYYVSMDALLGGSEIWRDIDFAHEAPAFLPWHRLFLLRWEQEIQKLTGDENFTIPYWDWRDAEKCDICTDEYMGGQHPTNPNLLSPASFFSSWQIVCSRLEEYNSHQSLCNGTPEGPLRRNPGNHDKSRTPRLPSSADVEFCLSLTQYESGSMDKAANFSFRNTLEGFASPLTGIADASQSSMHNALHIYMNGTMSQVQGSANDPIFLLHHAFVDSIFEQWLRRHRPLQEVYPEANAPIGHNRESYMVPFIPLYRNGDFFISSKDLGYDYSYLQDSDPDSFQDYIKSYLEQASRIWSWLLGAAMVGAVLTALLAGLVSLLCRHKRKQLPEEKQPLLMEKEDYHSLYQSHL
Procedure: Given the results, an in vitro assay was conducted on human melanocytes. In order to stimulate melanogenic activity in the cells they were treated with L-tyrosine. This compound, in addition to being a substrate of the tyrosinase enzyme, key to melanin synthesis, is capable of activating cell receptors that activate the melanogenesis-regulating signalling pathways (Slominski A, et al. L-tyrosine and L-dihydroxyphenylalanine as hormone-like regulators of melanocyte functions. Pigment Cell Melanoma Res. 2012; 25(1):14-27). This condition is aimed at stimulating melanogenesis in melanocytes for the purpose of extracting tyrosinase and testing the effect of the molecules of the invention.
Thus, human melanocytes were cultured in culture medium (#PCS-200-013, ATCC) and L-tyrosine (2 mM) for 3 days. After the stimulation treatment, the cells were trypsinised and lysated in PBS pH 7.0 with 1% Triton X-100. The cell lysate, which contains tyrosinase, was incubated together with the molecules of the invention at different concentrations (0.1 and 1 mM), L-DOPA and MBTH (Winder A J and Harris H. New assays for the tyrosine hydroxylase and dopa oxidase activities of tyrosinase. Eur. J. Biochem. 1991; 198(2):317-26). L-DOPA acts as a substrate for tyrosinase in the enzyme reaction and MBTH is a compound that bonds to the […] formed from the oxidation of L-DOPA, generating a colour complex. Each of the conditions used was prepared in triplicate. Lastly, absorbance at 492 nm was monitored using a spectrophotometer every 10 min for 2-5 h.

melanocyte = melanocyte cytotoxicity; type: cell-based; details: human melanocytes
Procedure: (§1) With the aim of studying the inhibition of molecules in melanin, an in vitro assay was conducted on human melanocytes using similar conditions to those described in the tyrosinase inhibition assay. L-tyrosine is used to stimulate melanogenic activity in cells with the aim of extracting the melanin. Here, only the molecules with the best tyrosinase-inhibiting activity were tested (formulas (II) and (III)). In this experiment, the concentration of molecules used is the highest possible taking into account the melanocyte cytotoxicity value, 1.25 mM for the molecule of formula (II) and 0.33 mM for the molecule of formula (III).

[1] = water solubility compared to DMSO by HPLC; type: physicochemical; details: 50 mg/ml; for Percentage of water solubility compared to the samples dissolved in DMSO: 1 hour stirring at room temperature, filtered, HPLC
Procedure: Solutions are prepared in DMSO and in water for each of the molecules. All the samples are prepared at a final concentration of 50 mg/ml. After stirring for 1 hour at room temperature, the samples are filtered and a HPLC is performed.
In order to calculate the percentage of solubility of each of the molecules, the area of the peak of the sample dissolved in water and in DMSO obtained by HPLC is determined. The results are given as a percentage of solubility of the compound dissolved in water in the compound dissolved in DMSO.

human melanocytes = test: melanin content in L-tyrosine-stimulated human melanocytes; type: cell-based; details: 3 days, L-tyrosine 2 mM, stimulated control = 100%
Procedure: as §1
Thus, human melanocytes are cultured in culture medium (#PCS-200-013, ATCC). L-tyrosine (2 mM) was added together with the molecule treatment. All the conditions were prepared in triplicate. After incubating the cells with the treatments for 3 days, they were trypsinised and lysated in 1M NaOH. Cell lysate absorbance at 340 nm was measured using a spectrophotometer. The absorbance value is directly proportional to melanin content.

Structure (SMILES)	Percentage of tyrosinase activity (tyrosinase; 0.1 mM)	Percentage of tyrosinase activity (tyrosinase; 1 mM)	highest possible concentration taking into account the melanocyte cytotoxicity value (melanocyte)	water solubility (in words) [1]	Percentage of water solubility compared to the samples dissolved in DMSO [1]	melanin content (human melanocytes; 1.25 mM)	melanin content (human melanocytes; 0.33 mM)
O=C(/C=C/c1ccc(O)c(S(=O)(=O)O)c1)c1ccc(O)c(S(=O)(=O)O)c1 [II, 5-[(E)-2-(4-hydroxy-3-sulfobenzoyl)-1-ethenyl]-2-hydroxybenzenesulfonic Acid]	97% and 97 ± 0%	55% and 55 ± 1%	1.25 mM	highly soluble	81%	78±7%	–
O=C(/C=C/c1ccc(O)cc1)c1ccc(O)c(S(=O)(=O)O)c1 [III, 5-[(E)-3-(p-hydroxyphenyl)acryloyl]-2-hydroxybenzenesulfonic Acid]	82% and 82 ± 2%	44% and 44 ± 1%	0.33 mM	highly soluble	84%	–	49±7%
O=C(/C=C/c1ccc(O)c(S(=O)(=O)[O-])c1)c1ccc(O)c(S(=O)(=O)[O-])c1.[K+].[K+] [IV M = K, 5-[(E)-2-(4-hydroxy-3-sulfonatebenzoyl)-1-ethenyl]-2-hydroxybenzenesulfonate, Dipotassium Salt]	>97%	97 ± 1%	–	–	100%	–	–
O=C(/C=C/c1ccc(O)cc1)c1ccc(O)cc1 [Reference molecule, (E)-1,3-bis(p-hydroxyphenyl)-2-propen-1-one, reference compound]	97 ± 3%	84 ± 4%	–	fully water soluble	0%	–	–
CCN(CC)CC.O=C(/C=C/c1ccc(O)cc1)c1ccc(O)c(S(=O)(=O)O)c1 [V M = (C2H5)3N, 5-[(E)-3-(p-hydroxyphenyl)acryloyl]-2-triethylammonium hydroxybenzenesulfonate]	>97%	83 ± 0%	–	–	100%	–	–
O=C(/C=C/c1ccc(O)cc1)c1ccc(O)c(S(=O)(=O)[O-])c1.[Na+] [V M = Na, 5-[(E)-3-(p-hydroxyphenyl)acryloyl]-2-sodium Hydroxybenzenesulfonate]	>97%	82 ± 3%	–	–	100%	–	–
O=C(CCc1ccc(O)c(S(=O)(=O)[O-])c1)c1ccc(O)c(S(=O)(=O)[O-])c1.[K+].[K+] [VI M = K, 2-hydroxy-5-[2-(4-hydroxy-3-sulfonatebenzoyl)ethyl]-benzenesulfonate, Dipotassium Salt]	>97%	91 ± 3%	–	–	100%	–	–
